Earlier results in patent US20230210738A1, “Low-Skin Irritating Deodorant Composition And A Method For Preparing Thereof” (Sislan (Zhuhai) Pharmaceutical Technology Co. Ltd., priority 2021, published 2023).

Key:
bacteria = details: hexamine prepared in basic condition
[1] = hexamine as weak base

SMILES: C1N2CN3CN1CN(C2)C3 [hexamine, hexamethylenetetramine]
- antibacterial effect (bacteria): capable of demonstrating an antibacterial effect
- neutralization of odoriferous, volatile organic acids [1]: able to neutralize a number of odoriferous, volatile organic acids
